From article PMC7039006 (2020)

Experiments:
[1] = tested on: 5'-AGAA overhang on iM7 (DNA, i motif) AGAACCCCTTTCCC; test: fluorescence enhancement; conditions: 2 mM MgCl2; TAE pH 5; 1 μM DNA, 3 μM DSMB
[2] = tested on: 5'-AGCA overhang on iM7 (DNA, i motif) AGCACCCCTTTCCC; test: fluorescence enhancement; conditions: 2 mM MgCl2; TAE pH 5; 1 μM DNA, 3 μM THIA
[3] = tested on: TiM7 (5'-TGGA-C4T3C3) (DNA, i motif) TGGACCCCTTTCCC; test: CD melting at 290 nm; conditions: 2 mM MgCl2; TAE pH 5; 50 μM DNA, 150 μM ThT
[4] = tested on: TiM9 (TGGAC5T3C4) (DNA, i motif) TGGACCCCCTTTCCCC; test: CD melting at 290 nm; conditions: 2 mM MgCl2; TAE pH 5; 50 μM DNA, 150 μM ThT
[5] = tested on: iM7 (C4T3C3) (DNA, i motif) CCCCTTTCCC; test: CD melting at 290 nm; conditions: 2 mM MgCl2; TAE pH 5; 50 μM DNA, 150 μM ThT; Tm stated unchanged
[6] = tested on: iM9 (C5T3C4) (DNA, i motif) CCCCCTTTCCCC; test: CD melting at 290 nm; conditions: 2 mM MgCl2; TAE pH 5; 50 μM DNA, 150 μM ThT; Tm stated unchanged
[7] = tested on: TiM7 (5'-TGGA-C4T3C3) (DNA, i motif) TGGACCCCTTTCCC; test: fluorescence titration; conditions: 2 mM MgCl2; TAE pH 5, 22°C; 3 μM ThT titrated with DNA
[8] = tested on: TiM9 (TGGAC5T3C4) (DNA, i motif) TGGACCCCCTTTCCCC; test: fluorescence titration; conditions: 2 mM MgCl2; TAE pH 5, 22°C; 3 μM ThT titrated with DNA
[9] = tested on: 5'-GGA overhang on iM7 (DNA, i motif) GGACCCCTTTCCC; test: fluorescence enhancement; conditions: 2 mM MgCl2; TAE pH 5, 22°C; 1 μM DNA, 3 μM ThT
[10] = tested on: 5'-GGA overhang on iM9 (DNA, i motif) GGACCCCCTTTCCCC; test: fluorescence enhancement; conditions: 2 mM MgCl2; TAE pH 5, 22°C; 1 μM DNA, 3 μM ThT
[11] = tested on: 5'-AGGA overhang on iM7 (DNA, i motif) AGGACCCCTTTCCC; test: fluorescence enhancement; conditions: 2 mM MgCl2; TAE pH 5, 22°C; 1 μM DNA, 3 μM ThT
[12] = tested on: 5'-AGGA overhang on iM9 (DNA, i motif) AGGACCCCCTTTCCCC; test: fluorescence enhancement; conditions: 2 mM MgCl2; TAE pH 5, 22°C; 1 μM DNA, 3 μM ThT
[13] = tested on: 3'-GGGA on C3T3C4 (DNA, i motif) CCCTTTCCCCGGGA; test: fluorescence enhancement; conditions: 2 mM MgCl2; TAE pH 5, 22°C; 1 μM DNA, 3 μM ThT
[14] = tested on: 3'-GGGA on C4T3C5 (DNA, i motif) CCCCTTTCCCCCGGGA; test: fluorescence enhancement; conditions: 2 mM MgCl2; TAE pH 5, 22°C; 1 μM DNA, 3 μM ThT
[15] = tested on: FNA-TiM9 (Th46/Th58 tetrahedron heterodimer tethered with TiM9) (DNA, other) TTCAGACGGAATGTGCTTCCCAAGTGTCGTTTGTATTGGCTCGCAT/TCAACTGGGTGATAAAACGACACTTGGGAATCTACTATGGCTCTTC/TATCACCCAGTTGACAGTGTAGCATGTAATAGATGCGAGCCAATAC/ACATTCCGTCTGAAACATTACATGCTACACGAGAAGAGCCATAGTATTTTTTTTATAAATAATTGGACCCCCTTTCCCC/TTCAGACTTAGGAATGTTGCTTCCCACGTAGTGTCGTGTTGGTATTGGACCCTCGCAT/TCAACTGCCTGGTGATAAAACACGACACTACGTGGGAATCTTACTATGGCGGCTCTTC/TTATCACCAGGCAGTTGACAGGTGTAGCAAGCTGTAATAGATGCGAGGGTCCAATACC/AACATTCCTAAGTCTGAAACATTACAGCTTGCTACACCGAGAAGAGCCGCCATAGTAATTTTTTAATATTTATAATGGACCCCCTTTCCCC; test: fluorescence enhancement; conditions: 2 mM MgCl2; TAE pH 5; 0.4 μM FNA, 0.4 μM ThT; over 20-fold fluorescence increase versus pH 8

SMILES: CN(C)c1ccc(/C=C/c2sc3ccccc3[n+]2C)cc1
- binding [1]: yes

SMILES: CCN1/C(=C/c2sc3ccccc3[n+]2CC)Sc2ccccc21
- binding [2]: yes

SMILES: Cc1ccc2c(c1)sc(-c1ccc(N(C)C)cc1)[n+]2C
- binding [3]: yes
- binding [4]: yes
- binding [5]: weak
- binding [6]: weak
- Kd [7]: ~ 3.9 μM
- Kd [8]: ~ 5.7 μM
- binding [9]: weak
- binding [10]: weak
- binding [11]: yes
- binding [12]: yes
- binding [13]: yes
- binding [14]: yes
- binding [15]: yes
